The test system of assay [1] is Vascular smooth muscle (BO54) cells. The class given is cell-based, baboon.
Assay [2] deals with vascular smooth muscle cells of balloon-traumatized arteries. The class given is in vivo, pig. The settings on record: pig, in vivo.
For assay [3], the system named is vascular smooth muscle cells. The assay is described as follows: In vitro DNA (3H-thymidine) and protein (3H-leucine) synthesis inhibition. The settings on record: 24 hour assays, 5% FBS. It is filed as cell-based. As for the experimental part: The ability of various therapeutic agents to inhibit DNA synthesis and protein synthesis in vascular smooth muscle cells was tested. ^3H-leucine and ^3H-thymidine uptake and cytotoxicity assays were conducted in accordance with the following protocols.
5 minute exposure: ^3H-leucine uptake: Vascular smooth muscle cells at 40,000 cells/ml were seeded in sterile 24 well plates at 1 ml/well. The plates were incubated overnight at 37° C., 5% CO2, 95% air in a humidified atmosphere (saturation). Log dilutions of the therapeutic agent of interest were incubated with the vascular smooth muscle cells for 5 minutes or 24 hours. […] Vials were counted on a Beckman LS2800 liquid scintillation counter interfaced with Beckman “Data Capture” software for conversion to a Lotus 1-2-3® file and analysis using Lotus 1-2-3®.
5 minute exposure: ^3H-thymidine uptake: Vascular smooth muscle cells were incubated in complete medium with 5% FBS (Gibco) overnight at 37° C. in a humidified, 5% CO2 environment in sterile 24 well plates. […] The cells were visually scored for viability and cell number. […] Vials were counted on a Beckman LS2800 liquid scintillation counter interfaced with Beckman “Data Capture” software for conversion to a Lotus 1-2-3® file and analysis using Lotus 1-2-3®.

In assay [4] the test system is target (BO54 and M14) and non-target (HT29) cells. It is filed as cell-based.

“Also recorded” adds a separate entry of the source.

With `CC(=O)O[C@@H]1/C=C\[C@@](C)(O)C(=O)[C@@H](C)C/C=C\[C@H]2[C@H](O)C(C)=C(C)[C@H]3C(Cc4ccccc4)NC(=O)[C@]132` (stereo partly shown) [cytochalasin C], the “minimum effective dose (MED)” value in assay [1] is 0.01 µg/mL.
As for `CN[C@@H]1C[C@H]2O[C@@](C)([C@@H]1OC)n1c3ccccc3c3c4c(c5c6ccccc6n2c5c31)C(=O)NC4` [staurosporin], in assay [2], the “BRDU uptake (cell proliferation)” value is on record as “inhibits target cell proliferation; also recorded: inhibited BRDU uptake (i.e., cell proliferation) without killing the vascular smooth muscle cells”. The “therapeutic range: 3H-leucine (protein synthesis) versus 3H-thymidine (DNA synthesis) inhibition” value in assay [3] was “exhibits a differential between ^3H-leucine and ^3H-thymidine uptake”.
Take Pseudomonas exotoxin [PE]: the “metabolic activity measured in the MTT assay” value in assay [4] is listed as “nonspecific cytotoxicity”.
